One test has as its system SMN2 mRNA. In words: RT-qPCR splicing assay, gene panel, SMN2 canonical junction (CJ) mRNA. The format is cell-based. The note with it: Homo sapiens, read-out: SMN2 CJ IC50. The procedure:
Compounds described herein were used to modulate RNA transcript abundance in cells. The expression of a target mRNA was measured by detecting the formation of an exon-exon junction in the canonical transcript (CJ). A compound mediated exon-inclusion event was detected by observing an increase in formation of a new junction with an alternative exon (AJ). Real-time qPCR assays were used to detect these splicing switches and interrogate the potency of various compounds towards different target genes. A high-throughput real time quantitative PCR (RT-qPCR) assay was developed to measure these two isoforms of the mRNA (CJ and AJ) for exemplary genes, such as HTT, SMN2, and MYB, together with a control housekeeping gene, GAPDH or GUSB or PPIA, used for normalization. Briefly, the A673 or K562 cell line was treated with various compounds described herein (e.g., compounds of Formula (I)). After treatment, the levels of the HTT, MYB, or SMN2 mRNA targets were determined from each sample of cell lysate by cDNA synthesis followed by qPCR.
The A673 cell line was cultured in DMEM with 10% FBS. Cells were diluted with full growth media and plated in a 96-well plate (15,000 cells in 100 ul media per well). The plate was incubated at 37° C. with 5% CO2 for 24 hours to allow cells to adhere. An 11-point 3-fold serial dilution of the compounds was made in DMSO then diluted in media in an intermediate plate. Compounds were transferred from the intermediate plate to the cell plate with the top dose at a final concentration of 10 uM in the well. Final DMSO concentration was kept at or below 0.25%. The cell plate was returned to the incubator at 37° C. with 5% CO2 for an additional 24 hours.
The K562 cell line was cultured in IMDM with 10% FBS. For K562, cells were diluted with full growth media and plated in either a 96-well plate (50,000 cells in 50 uL media per well) or a 384-well plate (8,000-40,000 cells in 45 uL media per well). An 11-point 3-fold serial dilution of the compounds were made in DMSO then diluted in media in an intermediate plate. Compound was transferred from the intermediate plate to the cell plate with the top dose at a final concentration of 10 uM in the well. Final DMSO concentration was kept at or below 0.25%. Final volume was 100 uL for 96-well plate and 50 uL for 384-well plate. The cell plate was then placed in an incubator at 37° C. with 5% CO2 for 24 hours.
The cells were then gently washed with 50 uL-100 uL cold PBS before proceeding to addition of lysis buffer. 30 uL-50 μL of room temperature lysis buffer with DNAse I (and optionally RNAsin) was added to each well. Cells were shaken/mixed thoroughly at room temperature for 5-10 minutes for lysis to take place and then 3 uL-5 μL of room temperature stop solution was added and wells were shaken/mixed again. After 2-5 minutes, the cell lysate plate was transferred to ice for RT-qPCR reaction setup. The lysates could also be frozen at −80° C. for later use.
In some cases, a direct lysis buffer was used. An appropriate volume of 3× lysis buffer (10 mM Tris, 150 mM NaCl, 1.5%-2.5% Igepal and 0.1-1 U/uL RNAsin, pH 7.4) was directly added to either K562 or A673 cells in media and mixed by pipetting 3 times. The plates were then incubated at room temperature with shaking/rocking for 20-50 minutes to allow for lysis to take place. After this time, the cell lysate plate was transferred to ice to set up for the RT-qPCR reactions. The lysates could also be frozen at −80° C. for later use.
To set up 10 uL RT-qPCR reactions, cell lysates were transferred to 384-well qPCR plates containing the master mix according to the table below. The plates were sealed, gently vortexed, and spun down before the run. The volumes were adjusted accordingly in some instances where the reaction was carried in 20 μL. The table below summarizes the components of the RT-qPCR reactions:
The RT-qPCR reaction was performed using a QuantStudio (ThermoFisher) under the following fast cycling conditions. […]

Test [1] has as its system HiBiT-tagged MYB protein in K562 cells. Briefly: HiBit protein abundance assay, MYB. The note with it: K562 HiBiT-modified cells, 24 hours, luminescence. The class given is cell-based, human. How it is done: Compounds described herein were used to screen for effects on quantitative protein abundance using a HiBit assay system (Promega). Quantitative protein abundance was determined by measuring the protein levels of HiBit-tagged protein targets expressed in cell culture via luminescence using the Nano-Glo HiBiT Lytic Detection System, which uses a split complementation assay format to reconstitute NanoBiT enzyme to generate a luminescent signal. A protein abundance assay was developed such that endogenous protein targets could be modified with the HiBiT peptide tag and their abundance could be assessed after compound treatment. Briefly, K562 cell lines containing a HiBiT-modification were treated with various compounds described herein (e.g., compounds of Formulas (I), (II), or (III)). After treatment for 24 hours, the protein abundance of a specific target was determined by measuring luminescence. • Promega Nano-Glo HiBiT Lytic Detection System (cat #N3030) • Corning 384-well TC-treated microplates (cat #3570) • Synthego Engineered Cells Knock-In Clones [table] Cells were maintained in IMDM with 10% FBS. Before the assay, cells were diluted with phenolphthalein-free growth media (IMDM+1% FBS media) and were seeded in a 384-well plate at a density of 10000 cells/well (for each cell line listed in Table 6). Each compound was prepared as a 10-point 3-fold serial dilution in DMSO with the top dose at a final concentration of 10 μM in the well. Unmodified K562 cells were added at the previously specified density with DMSO to serve as an assay baseline and positive control (PC) and DMSO only with the respective modified cell lines was added to the negative control (NC) columns. Final DMSO concentration was kept at or below 0.25%. Treated cell plates were placed in an incubator at 37° C. with 5% CO2 for 24 hours. After 24 hours, 25 μL of Complete HiBit Lytic reagent was added to each well at room temperature (e.g. one plate requiring 10 mL Lytic Buffer, 100 μL LgBiT Protein, 200 μL Lytic Substrate), shaken for 5 minutes at 600 RPM, then left to sit for 10 minutes for signal to stabilize before reading on a Spark Cyto plate reader (Tecan) with a 500 ms measurement time. To determine compound effects on protein abundance of each target in Table 6, the percent response for each respective cell line was calculated at each compound concentration as follows: For the normalized response at each concentration, a four-parameter logistical regression was fit to the data and the response was interpolated at the 50% value to determine a concentration for protein abundance at 50% (IC50) the untreated control.

The mark [2] stands for this setting: decrease in CJ mRNA levels, larger panel of genes, Table 3.

Like-named read-outs stand apart in the source and are kept apart here.

Take `CCN1CCC(n2cc3cc(-c4cc(C)c5nc(C)cn5n4)cc(F)c3n2)CC12CC2` (stereo not shown) [Compound 177, 6-[2-(4-ethyl-4-azaspiro[2.5]octan-7-yl)-7-fluoro-indazol-5-yl]-2,8-dimethyl-imidazo[1,2-b]pyridazine]: the figures for the IC50 (in the test on SMN2 mRNA (setting [2]); in test [1]) were under 100 nM and 100 to 1000 nM, respectively.

For `Cc1ccc2cc(-c3cc(F)c4nn(C5CCNCC5)cc4c3)ccc2n1` [Compound 163, 6-[7-fluoro-2-(4-piperidyl)indazol-5-yl]-2-methyl-quinoline], the IC50 (in the test with SMN2 mRNA (setting [2]); in test [1]) was 1000 to 10000 nM in each case.

Consider `Cc1cc(-c2cc(F)c3nn(C4CCNCC4)cc3c2)cc2cn(C)nc12` [Compound 133, 5-(2,7-dimethylindazol-5-yl)-7-fluoro-2-(4-piperidyl)indazole], for which the half-inhibitory concentration (IC50) with SMN2 mRNA (setting [2]) was under 100 nM; in test [1], 100 to 1000 nM.

Consider `CCN1CCC(n2cc3cc(-c4cc(F)c5nn(C)cc5c4)cc(F)c3n2)CC1` [Compound 104, 2-(1-ethyl-4-piperidyl)-7-fluoro-5-(7-fluoro-2-methyl-indazol-5-yl)indazole], for which the IC50 was under 100 nM with SMN2 mRNA (setting [2]) and 100 to 1000 nM in test [1].

For the compound `Cc1cn2nc(-c3cc(F)c4nn(C5CCNC6(CC6)C5)cc4c3)cc(C)c2n1` (stereo not shown) [Compound 171, 6-[2-(4-azaspiro[2.5]octan-7-yl)-7-fluoro-indazol-5-yl]-2,8-dimethyl-imidazo[1,2-b]pyridazine], the half-inhibitory concentration (IC50) in the test with SMN2 mRNA (setting [2]) is under 100 nM; in test [1] it was 100 to 1000 nM.

As to `Cc1cn2cc(-c3cc(F)c4nn(C5CCNCC5)cc4c3)cc(C)c2n1` [Compound 125, 5-(2,8-dimethylimidazo[1,2-a]pyridin-6-yl)-7-fluoro-2-(4-piperidyl)indazole], the IC50 was under 100 nM in the test on SMN2 mRNA (setting [2]) and 100 to 1000 nM in test [1].

With `Cc1cn2nc(-c3cc(F)c4nn(C5CCNC6(CCC6)C5)cc4c3)cc(C)c2n1` (stereo not shown) [Compound 189, 6-[2-(5-azaspiro[3.5]nonan-8-yl)-7-fluoro-indazol-5-yl]-2,8-dimethyl-imidazo[1,2-b]pyridazine], the concentration for half-maximal inhibition (IC50) in the test on SMN2 mRNA (setting [2]) was under 100 nM; in test [1], 100 to 1000 nM.

As to `Cc1cn2nc(-c3cc(F)c4nn(C5CCNCC5F)cc4c3)cc(C)c2n1` (stereo not shown) [Compound 166, 6-[7-fluoro-2-(3-fluoro-4-piperidyl)indazol-5-yl]-2,8-dimethyl-imidazo [1,2-b]pyridazine], the IC50 with SMN2 mRNA (setting [2]) is under 100 nM; in test [1], 100 to 1000 nM.

Regarding `Cn1cc2cc(-c3ccc4nn(C5CCNCC5)cc4n3)c(O)c(F)c2n1` [Compound 107, 7-fluoro-2-methyl-5-[2-(4-piperidyl)pyrazolo [4,3-b]pyridin-5-yl]indazol-6-ol], the values for the half-inhibitory concentration (IC50) (with SMN2 mRNA (setting [2]); in test [1]) were under 100 nM and 100 to 1000 nM, respectively.

As for `Cc1cn2nc(-c3ccc4nn(C5CCNCC5)cc4n3)cc(C)c2n1` [Compound 138, 2,8-dimethyl-6-[2-(4-piperidyl)pyrazolo[4,3-b]pyridin-5-yl]imidazo[1,2-b]pyridazine], the IC50 in the test with SMN2 mRNA (setting [2]) was under 100 nM; in test [1], 100 to 1000 nM.

`Cn1cc2cc(-c3ccc4cn(C5CCNCC5)nc4c3)cc(F)c2n1` [Compound 148, 7-fluoro-2-methyl-5-[2-(4-piperidyl)indazol-6-yl]indazole]: the IC50 in the test with SMN2 mRNA (setting [2]) was 1000 to 10000 nM; in test [1] it was over 10000 nM.

Regarding `Cn1cc2cc(-c3cc(Cl)c4nn(C5CCNCC5)cc4n3)c(O)cc2n1` [Compound 141], the IC50 is 1000 to 10000 nM with SMN2 mRNA (setting [2]) and over 10000 nM in test [1].

Regarding `Cc1cn2cc(-c3cc(F)c4nn(C5CCNCC5)cc4c3)nc(C)c2n1` [Compound 132, 6-[7-fluoro-2-(4-piperidyl)indazol-5-yl]-2,8-dimethyl-imidazo[1,2-a]pyrazine], the values for the IC50 (in the test on SMN2 mRNA (setting [2]); in test [1]) were 100 to 1000 nM and 1000 to 10000 nM, respectively.

On to `Cc1cn2nc(-c3cc4cn(C5CCNCC5)nc4c(O)n3)cc(C)c2n1` [Compound 139, 5-(2,8-dimethylimidazo[1,2-b]pyridazin-6-yl)-2-(4-piperidyl)-6H-pyrazolo[3,4-c]pyridin-7-one], for which the half-maximal inhibitory concentration (IC50) in the test with SMN2 mRNA (setting [2]) was under 100 nM; in test [1], 100 to 1000 nM.

For the compound `Cn1cc2cc(-c3ccc4nn(C5CCNCC5)cc4n3)c(O)cc2n1` [Compound 110, 2-methyl-5-[2-(4-piperidyl)pyrazolo[4,3-b]pyridin-5-yl]indazol-6-ol], the IC50 in the test on SMN2 mRNA (setting [2]) is under 100 nM; in test [1] it was 100 to 1000 nM.

For the compound `COc1cc(-c2cc(C)c3nc(C)cn3n2)cc2cn(C3CCNCC3)nc12` [Compound 155, 6-(7-methoxy-2-(piperidin-4-yl)-2H-indazol-5-yl)-2,8-dimethylimidazo [1,2-b]pyridazine], the concentration for half-maximal inhibition (IC50) in the test on SMN2 mRNA (setting [2]) was under 100 nM; in test [1], 100 to 1000 nM.

Consider `Fc1cc(-c2ccc3ncccc3c2)cc2cn(C3CCNCC3)nc12` [Compound 162, 6-[7-fluoro-2-(4-piperidyl)indazol-5-yl]quinoline], for which the IC50 (in the test on SMN2 mRNA (setting [2]); in test [1]) was 1000 to 10000 nM in each case.

Consider `Cc1ccc2nc(-c3cc(F)c4nn(C5CCNCC5)cc4c3)ccc2n1` [Compound 157, 2-[7-fluoro-2-(4-piperidyl)indazol-5-yl]-6-methyl-1,5-naphthyridine], for which the concentration for half-maximal inhibition (IC50) (with SMN2 mRNA (setting [2]); in test [1]) was 1000 to 10000 nM in each case.

As to `Cc1cn2nc(-c3cc(F)c4nn(C5CCN(CCO)C6(CC6)C5)cc4c3)cc(C)c2n1` (stereo not shown) [Compound 180, 2-[7-[5-(2,8-dimethylimidazo[1,2-b]pyridazin-6-yl)-7-fluoro-indazol-2-yl]-4-azaspiro[2.5]octan-4-yl]ethanol], the results for the IC50 (with SMN2 mRNA; in test [1]) were under 100 nM and 100 to 1000 nM, respectively.

Regarding `Cc1nc2c(C)cc(-c3cc(F)c4nn(C5CCNCC5)cc4c3)cc2o1` [Compound 137, 6-[7-fluoro-2-(4-piperidyl)indazol-5-yl]-2,4-dimethyl-1,3-benzoxazole], the results for the IC50 (in the test on SMN2 mRNA (setting [2]); in test [1]) were under 100 nM and 100 to 1000 nM, respectively.

For the origin of these results see US20250082633A1, “COMPOUNDS AND METHODS FOR MODULATING SPLICING” (REMIX THERAPEUTICS INC., priority 2021, published 2025).
